Data reported in patent US8148367B2 (Takeda Pharmaceutical Company Limited, priority 2008, dated 2012).

The compounds below were run against T1, Recombinant human renin (Homo sapiens, UniProt P00797) (assay: In vitro enzymatic activity assay of renin inhibitors (fluorescence, QXL520/HiLyteFluo488 peptide substrate)). Conditions: recombinant human renin 3 nM, 1 μM substrate, pre-incubated 10 minutes at 37° C., incubation one hour, pH 7.4, 5% DMSO; read-out: IC50 of Exemplified Compounds Against Renin.
T1 construct: isolate the active form (residues 67-406); made in house; host or cells: FreeStyle 293-F cells, transient expression of pcDNA3.1(+)/hREN
T1 sequence (P00797 67-406): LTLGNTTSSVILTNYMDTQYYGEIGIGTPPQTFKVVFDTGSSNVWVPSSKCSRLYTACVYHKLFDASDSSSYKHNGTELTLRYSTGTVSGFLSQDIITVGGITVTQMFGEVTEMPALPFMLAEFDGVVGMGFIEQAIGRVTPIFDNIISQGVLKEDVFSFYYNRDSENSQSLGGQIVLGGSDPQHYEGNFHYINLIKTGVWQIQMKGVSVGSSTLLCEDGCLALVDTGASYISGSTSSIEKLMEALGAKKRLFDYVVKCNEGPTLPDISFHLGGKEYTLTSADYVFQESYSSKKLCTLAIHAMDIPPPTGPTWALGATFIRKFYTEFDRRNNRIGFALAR
Assay type: biochemical
Work on `COc1ccccc1-n1c(-c2ccccc2)c(C(=O)N2CCNCC2)n(CCCNC(=O)c2ccccc2)c1=O` [Example 159, N-(3-(3-(2-Methoxyphenyl)-2-oxo-4-phenyl-5-(piperazine-1-carbonyl)-2,3-dihydro-1H-imidazol-1-yl)propyl)benzamide] yielded an IC50 of over 1 µM. `O=C(c1c(-c2ccccc2)n(-c2ccccc2)c(=O)n1CC1CCOCC1)N1CCNCC1` [Example 53, 1,5-Diphenyl-4-(piperazine-1-carbonyl)-3-((tetrahydro-2H-pyran-4-yl)methyl)-1H-imidazol-2(3H)-one] gave an IC50 of over 1 µM. `Cc1ccccc1-n1c(-c2ccccc2)c(C(=O)N2CCNCC2)n(CCCNC(=O)C2CCCCC2)c1=O` [Example 247, N-(3-(2-oxo-4-phenyl-5-(piperazine-1-carbonyl)-3-o-tolyl-2,3-dihydro-1H-imidazol-1-yl)propyl)cyclohexanecarboxamide] gave an IC50 of over 1 µM. In the case of `Cc1ccccc1-n1c(-c2ccccc2)c(C(=O)N2CCNCC2)n(CCCNC(=O)c2cccc(Cl)c2)c1=O` [Example 242, 3-Chloro-N-(3-(2-oxo-4-phenyl-5-(piperazine-1-carbonyl)-3-o-tolyl-2,3-dihydro-1H-imidazol-1-yl)propyl)benzamide], the IC50 is reported as over 1 µM. `COc1ccc(C(=O)NCCCn2c(C(=O)N3CCNCC3)c(-c3ccccc3)n(-c3ccccc3C)c2=O)cc1` [Example 245, 4-Methoxy-N-(3-(2-oxo-4-phenyl-5-(piperazine-1-carbonyl)-3-o-tolyl-2,3-dihydro-1H-imidazol-1-yl)propyl)benzamide] was tested, and the IC50 was over 1 µM. Work on `CC(C)CC(=O)NCCCn1c(C(=O)N2CCNCC2)c(-c2ccccc2)n(-c2cccc(N3CCOCC3)c2)c1=O` [Example 176, 3-Methyl-N-(3-(3-(3-morpholinophenyl)-2-oxo-4-phenyl-5-(piperazine-1-carbonyl)-2,3-dihydro-1H-imidazol-1-yl)propyl)butanamide] yielded an IC50 of over 1 µM. With `COc1ccccc1C(=O)NCCCn1c(C(=O)N2CCNCC2)c(-c2ccccc2)n(-c2ccccc2C)c1=O` [Example 244, 2-Methoxy-N-(3-(2-oxo-4-phenyl-5-(piperazine-1-carbonyl)-3-o-tolyl-2,3-dihydro-1H-imidazol-1-yl)propyl)benzamide] the IC50 was over 1 µM. With `COc1cccc(NC(=O)NCCCn2c(C(=O)N3CCNCC3)c(-c3ccccc3)n(-c3ccccc3C)c2=O)c1` [Example 226, 1-(3-Methoxyphenyl)-3-(3-(2-oxo-4-phenyl-5-(piperazine-1-carbonyl)-3-o-tolyl-2,3-dihydro-1H-imidazol-1-yl)propyl)urea] the IC50 was 0.1 to 0.5 µM. For `CC1CN(C(=O)c2[nH]c(=O)n(C3CCCCC3)c2-c2ccccc2)CCN1` (stereo not shown) [Example 38, 1-Cyclohexyl-4-(3-methylpiperazine-1-carbonyl)-5-phenyl-1H-imidazol-2(3H)-one], the IC50 was over 1 µM. `O=C(NCCCn1c(C(=O)N2CCNCC2)c(-c2ccccc2)n(-c2cccc(N3CCOCC3)c2)c1=O)Nc1ccccc1` [Example 200, 1-(3-(3-(3-Morpholinophenyl)-2-oxo-4-phenyl-5-(piperazine-1-carbonyl)-2,3-dihydro-1H-imidazol-1-yl)propyl)-3-phenylurea] was tested, and the IC50 was 0.5 to 1 µM. `Cc1ccccc1-n1c(-c2ccccc2)c(C(=O)N2CCNCC2)n(CCNC(=O)c2ccccc2F)c1=O` [Example 230, 2-Fluoro-N-(2-(2-oxo-4-phenyl-5-(piperazine-1-carbonyl)-3-o-tolyl-2,3-dihydro-1H-imidazol-1-yl)ethyl)benzamide] gave an IC50 of over 1 µM. In the case of `COCCCOc1cccc(-n2c(-c3ccccc3)c(C(=O)N3CCNCC3)n(CCNC(=O)CC(C)C)c2=O)c1` [Example 184, N-(2-(3-(3-(3-Methoxypropoxy)phenyl)-2-oxo-4-phenyl-5-(piperazine-1-carbonyl)-2,3-dihydro-1H-imidazol-1-yl)ethyl)-3-methylbutanamide], the IC50 is reported as over 1 µM. In the case of `Cc1ccccc1-n1c(-c2ccccc2)c(C(=O)N2CCNCC2)n(CC2CCCCC2)c1=O` [Example 163, 1-(Cyclohexylmethyl)-4-phenyl-5-(piperazine-1-carbonyl)-3-o-tolyl-1H-imidazol-2(3H)-one], the IC50 is reported as over 1 µM.
